Experimental data: patent EP0485219B1, “Medicaments for preventing and treating circulatory organ diseases containing spiro-3-heteroazolidine compounds” (SANWA KAGAKU KENKYUSHO CO., LTD., priority 1990, dated 1992)

What was measured:
right atrium = assay: Action on extracted guinea pigs' hearts: right atrium sample (heart rate); design: species or system Hartley guinea pigs; conditions: for Heart Rates 10^-4(M): suppression at 10^-4 M; for Heart Rates 10^-5(M): suppression at 10^-5 M
Description: (§1) Stunned by receiving a blow on the heads, Hartley guinea pigs (weighing 300-400 g) were fixed on the back regions to extract their hearts. Each of the extracted hearts was placed in a beaker containing the same Krebs-Henseleit solution as used in Test Example 4 and supplied with 95% O₂-5% CO₂ gases, thereby stripping it of blood deposits, and was then passed into a sample forming glass vessel. This vessel was previously filled with a Krebs-Henseleit solution and the above gaseous mixture continued to be supplied thereto during preparing the sample.
(§2) In order to prepare the sample, the right and left atria were cut out of the ventricular muscle along the atriventricular sulcus from the center of both the right and left auricles.
The thus extracted right atrium was suspended in a Magnus tube with a tension of 0.2 to 0.3 g, said tube supplied with 95% O₂ - 5% CO₂ gases, containing 10 ml of a Krebs-Henseleit solution and maintained at 32±1°C. The contraction of the sample was recorded on a recorder through an FD pickup simultaneously with counting and recording the beat with an instantaneous cardiograph unit.
(§3) The actions of the present and control compounds on the right (counting the heart rate) and left (measuring the systole force) atria are reported below.

left atrium = assay: Action on extracted guinea pigs' hearts: left atrium sample (systole force); design: species or system Hartley guinea pigs; conditions: electrically stimulated; for Systole Forces 10^-4(M): suppression at 10^-4 M; for Systole Forces 10^-5(M): suppression at 10^-5 M
Description: as §1, §2
The extracted left atrium was fixed with a micro wire clamp through both the auricles in a Magnus tube supplied with 95% O₂ - 5% CO₂ gases, containing 30 ml of a Krebs-Henseleit solution and maintained at a solution temperature of 32±1°C, and then suspended therein under a checking tension of ca. 0.25 g. While a platinum bipolar electrode attached to the above-mentioned micro wire clamp was in contact with the atrium, stimuli were given to it by 1-Hz, 2-msec. and 10-V rectangular waves derived through an electrical stimulator and an isolator to record the movement of said atrium with an FD pickup connected with it through silk thread.
as §3

platelet aggregation = assay: Ex vivo action on inhibiting platelet aggregation after intravenous administration; assay type: in vivo, rat; conditions: inhibition of platelet aggregation relative to control; 30.0 mg/kg intravenously, blood gathered five minutes after; inducer collagen
Method: Five minutes after the test compound had been intravenously administered to the tail of a rat, blood was gathered from the descending aorta of the rat which was lightly etherized. Added to this blood was citric acid (3.8% sodium citrate) in a volume ratio of 1/10.
The thus treated blood was centrifuged at 1500 rpm for 5 minutes to obtain a supernatant fluid in the form of PRP. The residues were then again centrifuged at 4°C and 3000 rpm for 10 minutes to obtain a supernatant fluid in the form of PPP. For the platelet aggregation test, NAB HEMA TRACER 601 (Model PAT-60 made by Niko Bioscience Co., Ltd.) was used. […] of PRP were put in a PRP cuvette having a stirrer bar with the transmittance set at 0%, while 300 µl of PPP were put in a PPP cuvette with the transmittance set at 100%. After 1-minute preincubation, 20 µl of an aggregation inducer (collagen or ADP) were introduced.
A control group, to which dimethylacetamide and tartaric acid in a ratio of 2/3 were given in a quantity of 1 ml/kg, was treated similarly to the test group. Upon the addition of the aggregation inducer, a maximum transmittance change was read to find a platelet aggregation change in %. […] Table 3 sets out the results, from it is noted that the present compounds have a significant action on inhibiting platelet aggregation.

SMILES	Heart Rates 10^-4(M) (right atrium)	Heart Rates 10^-5(M) (right atrium)	Systole Forces 10^-4(M) (left atrium)	Systole Forces 10^-5(M) (left atrium)	inhibition of collagen-induced platelet aggregation (platelet aggregation)
CC(C)NCC(O)COc1cccc2ccccc12 (stereo not shown) [A, propranolol]	++ (++ indicates 20% or more suppression)	++ (++ indicates 20% or more suppression)	++ (++ indicates 20% or more suppression)	++ (++ indicates 20% or more suppression)	
CC(=O)Oc1ccccc1C(=O)O [Aspirin]					77%
CC(C(O)c1ccc(O)cc1)N1CCC(Cc2ccccc2)CC1 (stereo not shown) [B, ifenprodil]	++ (++ indicates 20% or more suppression)	++ (++ indicates 20% or more suppression)	+ (+ 10-20% suppression)	- (- 0% suppression)	
COc1ccc2c(c1)c(CC(=O)O)c(C)n2C(=O)c1ccc(Cl)cc1 [Indomethacin]					49%
